One assay concerns NOMO-1 cells (MLL-AF9). In words: Cell proliferation, trypan blue counting. To be noted: Homo sapiens, 360 h; NOMO-1 (AF9), 15-day treatment; read-out: EC50 of the proliferation inhibition. The assay is classed as cell-based. The method, then: (§1) For assessment of cell proliferation and viability in human cell lines, exponentially growing cells were placed, in triplicate, in 96-well plates at a density of 35,000 cells/well at a final volume of 100 µL. […] The viable cell number was determined every 3–4 days for up to 15 days to 21 days using trypan blue counting using Cellometer Disposable Counting Chambers for the Cellometer Mini Automated Cell Counter.

In a further assay the test system is KOPN8 cells (MLL-ENL). Put plainly: Cell proliferation, trypan blue counting. Format: cell-based. To be noted: Homo sapiens, KOPN-8, 360 h, 15-day treatment, read-out: EC50 of the proliferation inhibition. The method, then:
as §1

The subject of the next assay is MOLM-13 cells (MLL-AF9). Put plainly: Cell proliferation, trypan blue counting. The assay is classed as cell-based. To be noted: Homo sapiens, 360 h; MOLM-13 (AF9), 15-day treatment; read-out: EC50 of the proliferation inhibition.
The subject of another assay is H3K79me2 in MOLM13 cells. In words: Western blot of H3K79me2 normalized to total H3. Format: cell-based, human. To be noted: MOLM13, 6 days. As for the experimental part:
(§2) Next, we evaluated the effect on the demethylation of H3K79 in MLL-AF9 MOLM13 cells (Figure 7B).
(§3) The non-adherent cell lines MV4-11, MOLM-13, and KOPN8 exponentially growing cells were plated in 12-well plates (1 plate for each experiment) at a rate of 500,000 cells per well at a final volume of 2 mL. The cells were incubated in the presence of increasing inhibitor concentrations (0.1, 0.32, 1, 3.2, 10 µM). The cells (1 to 2 million) were harvested at the time chosen according to the line in order to extract the histones and the RNAs.
(§4) For the isolation of histones from cells, 1 to 2 million cells were collected, after exposure to the chosen treatment, by centrifugation at 200× g and lysed by 5 min of incubation on ice in 250 μL of the nuclear extraction buffer (10 mM Tris-HCl, 10 mM MgCl2, 25 mM KCl, 1% Triton X-100, 8.6% sucrose, Roche Protease inhibitor tablet 1836145). The nuclei were collected by centrifugation at 600× g for 5 min at 4 °C. The supernatant was removed and the histones were extracted for 1 h with 0.4 N cold sulfuric acid. The extracts were clarified by centrifugation at 10,000× g for 10 min at 4 °C and transferred to a microcentrifuge tube containing a 10× volume of ice-cold acetone. The histones were precipitated at ‒20 °C overnight and recovered by centrifugation at 1500× g for 10 min in the form of a pellet and then resuspended in 80 μL of water. Histones were quantified by absorbance measured by a nanodrop at 276 nm.
(§5) After extraction, the histones (500ng) were separated on 4–20% Tris-Glycine gels (Invitrogen) and transferred onto a nitrocellulose membrane ([…]) using the iBlot® Gel Transfer Stacks Nitrocellulose kit Mini (Invitrogen). After blocking nonspecific sites for 1 h at room temperature in a solution of 1X TBS at 5% milk, the membrane was incubated with rabbit anti-H3K79me2 (ab3594, 1/1000) or anti-H3 (ab1791)1/1000) overnight at 4 °C or 1 h at RT. The membrane was then washed three times for 5 min in a 1X TBS solution containing 0.05% Tween20 and was then incubated with an HRP anti-rabbit secondary antibody (NA934V, 1/10,000) for 1 h at RT. […]

A further assay has as its system H3K79me2 in MV4-11 cells. Put plainly: Western blot of H3K79me2 normalized to total H3. Format: cell-based, human. To be noted: MV4-11, 4 days, increasing concentrations. As for the experimental part: as §2, §3, §4, §5
In a further assay the test system is MV4-11 cells. In words: Flow cytometry apoptosis analysis (Annexin V-APC/7-AAD). The assay is classed as cell-based, human. The method, then: A decrease in the S phase of the cell cycle was also observed from 24% (day 8) to 20% (day 10), 13% (day 12).
In a 12-well plate, 2 mL exponentially growing MV4-11 cells were plated with a density of 2 × 10^5 cells/mL. […] Culture media and drugs were replaced every 2–3 days and cells were split back to a density of 2 × 10^5 cells/mL at the same time. Cells were harvested on days 8, 10, 12 and split to allow the analysis of cell cycle and Annexin V staining simultaneously. The apoptosis ratio was detected by an Annexin V-APC/7-AAD double staining assay (SONY 3804610) and cells were prepared according to the manufacturer’s recommendations. Cells for the cell cycle analysis were collected by centrifugation at 500× g for 5 min at 4 °C. The pellets were washed once with cold PBS and then fixed with 70% ethanol on ice for 30 min. Afterwards, the cells were washed once with cold PBS and stained with propidium iodide (Invitrogen P3566) for 30 min at 37 °C. Samples were measured using an Attune NxT acoustic focusing cytometer (Life Technologies), data were analyzed by FlowJo.

`CC(C)[C@H](CCCNC(=O)Nc1ccc(C(C)(C)C)cc1)N[C@H]1C[C@@H](n2cnc3c(N)ncnc32)[C@H](O)[C@@H]1O` [Dia2, 1-((S)-4-(((1S,2R,3S,4R)-4-(6-amino-9H-purin-9-yl)-2,3-dihydroxycyclopentyl)amino)-5-methylhexyl)-3-(4-(tert-butyl)phenyl)urea]: the EC50 in the assay on NOMO-1 cells (MLL-AF9) turned out to be 660 ± 20 nM; with KOPN8 cells (MLL-ENL) it was 63 ± 2 nM; in the assay on MOLM-13 cells (MLL-AF9) it was 120 ± 10 nM. In addition, the “inhibition of the H3K79me2 mark” value in the assay on H3K79me2 in MOLM13 cells is “as efficient as EPZ-5676”. Further, in the assay on H3K79me2 in MV4-11 cells, the “H3K79me2 methylation compared to DMSO treated cells” value was “efficient decrease in methylation”. The effect on apoptosis entry in the assay on MV4-11 cells (MV4-11) was “very little apoptosis”. The “apoptotic (Annexin V positive) cells” value is reported as 23% in the assay with MV4-11 cells (MV4-11, 1 µM, day 8); 20% in the assay on MV4-11 cells (MV4-11, 1 µM, day 10); 35% with MV4-11 cells (MV4-11, 3.2 µM, day 8); 38% with MV4-11 cells (MV4-11, 3.2 µM, day 10).

The record behind these values is article PMC8434109, “Synthesis and Biological Activity of a Cytostatic Inhibitor of MLLr Leukemia Targeting the DOT1L Protein” (Molecules, 2021).
